# Measured values as given in patent publication US11718628B2, “SREBP inhibitors comprising a 6-membered central ring” (Capulus Therapeutics, LLC, priority 2018, dated 2023).
# Where two headings read alike, the source gives them in different places.
# Columns and labels:
# SREBP = experiment: Reporter screening assay (SRE-luciferase reporter construct); type: cell-based; settings: Homo sapiens; SREBPv1 reporter cell line HepG2, 24 hours, 0.01 uM to 10 uM; read-out: Reporter Screening IC50 (nM) Activity Range
# Description: This assay was used to evaluate the effect on transcriptional activity SREBP of the compounds synthesized according to Examples 1-16, 20, and 22, using an SRE-luciferase reporter construct. On day 1, 10,000 cells were seeded in a 96 well (white) plate as per the plate map in Growth media without antibiotics. Cells were incubated at 37° C. for 8 hours. After 8 hours, cells were washed with DPBS for complete removal of FBS. DPBS was completely removed and Growth media was replaced with phenol free treatment medium (90 μl) with different FBS concentrations. The cells were then incubated at 37° C. for 24 hours with varying doses (0.01 uM to 10 uM) of compounds. Then a Luciferase assay was performed.
# Reagents for performing Luciferase assay were stored at −20° C. To a tube of lyophilized assay substrate was added 1 mL Substrate Solvent and mixed well. The Substrate tube after reconstitution was covered with aluminum foil so as to keep it protected from light. The assay buffer was thawed to room temperature. To 20 mL Assay Buffer was added 200 μL of reconstituted 100× Substrate and mixed well. The reconstituted substrate as well as the assay solution (buffer+substrate) was protected from light throughout the procedure by keeping it covered with aluminum foil.
# Using a multi-channel pipette, 100 μL Assay Solution (buffer+substrate) was added directly to each sample well in Plate 1, which was incubated for 30 min (plate was covered with aluminum foil). After 30 min incubation, the plate was read for total luminescence. Each well was read for 2 seconds in a plate luminometer. (Microplate reader Envision Microplate reader from Perkin Elmer). Precaution was taken to incubate plate exactly for 30 min prior to reading on the plate reader.
# Materials: SREBPv1 Reporter cell line: HepG2—#32251. Growth Medium: MEM (Corning 10-010), 10% FBS, 1% GlutaMax (Invitrogen Catalog #35050061), […] (Invitrogen Catalog #A1113803) and 1% Penicillin-Streptomycin (Pen-Strep). Treatment Media: Phenol-free MEM (Invitrogen Catalog #51200-038) and 1% GlutaMax (Invitrogen Catalog #35050061). Luciferase Assay: LightSwitch Luciferase Assay Kit (Catalog #32032). LDH assay: Pierce LDH Cytotoxicity Assay Kit (Catalog #SD249616).
# [1] = Log D by octanol/aqueous buffer partitioning; type: physicochemical; settings: pH 7.4, 1-octanol/buffer
# Description: The Log D of selected compounds was evaluated by octanol/aqueous buffer partitioning. 500 μL of organic phase (1-octanol) was added to each well of a 2 mL deep well plate, followed by 500 μL of buffer and 15 μL of test compound in DMSO (0.15 mM). The plate was vortexed for 10 seconds and incubated at room temperature for 1 hr on a plate shaker at 200 rpm. After incubation, the samples were allowed to equilibrate for 20 min and then centrifuged at 4000 rpm for 30 min for complete phase separation. The distribution of test compound in buffer and octanol phase was analyzed by HPLC-UV. Log D=Log (Area of Octanol/Area of Buffer).
# [2] = In vivo pharmacokinetic properties in rats (IV and PO); design: species or system male Sprague Dawley rats
# Description: (§1) The in vivo pharmacokinetic properties of compounds by both intravenous and oral administration were evaluated in male Sprague Dawley rats or C57BL/6J mice.
# (§2) Animals were housed in cages with clean bedding. Certified rodent diet was provided. Water was available ad libitum. Environmental controls for the animal room were set to maintain a temperature of 22° C. to 25° C., humidity of 40-70% RH, and a 12-hour light/12-hour dark cycle. Normal healthy animals certified by the attending veterinarian were selected and acclimatized for minimum three days prior to initiation of study.
# Surgical Procedure for Jugular Vein Cannulation of Rats: Rats were anaesthetized with a single dose of ketamine 50 mg/kg i.p.+xylazine 6 mg/kg i.p. The right jugular vein was exposed, a loose ligature was placed caudally, and the cranial end of vein was ligated. A small incision was made between the ligatures into which the catheter (polyethylene 50 tubing of internal diameter 0.58 mm and outer diameter 0.96 mm) was inserted. The catheter was secured in place by tying the loose ligature around the catheterized vessel. A small incision was made in the scapular region to serve as the exit site of the catheter. The catheter was subcutaneously tunneled and exteriorized through scapular incision. A stay suture was placed in the scapular area. Patency was tested, and catheter was filled with a locking solution (heparinized saline) and sealed with a stainless steel plug. The incision was then sutured with sterile suturing material. Anti-septic solution was applied to the sutured site and animal was placed back in the home cage.
# (§3) To evaluate pharmacokinetic properties of intravenous delivery, male Sprague Dawley rats were administered 2.00 mg compound/kg animal weight through the tail vein. The concentration of the compound in the plasma of the animals was evaluated at 0.083, 0.25, 0.5, 1, 2, 4, 8, 12 and 24 hr by taking blood samples from the cannulated jugular vein. For the C5Bl/6J mice, blood samples were collected through a capillary, guided in retro-orbital plexus.
# To evaluate pharmacokinetic properties of oral delivery, rats (male Sprague Dawley rats) or mice (C5Bl/6J) were administered 10 mg compound/kg animal weight by mouth. The concentration of compound in the plasma of the animals was evaluated at 0.25, 0.5, 1, 2, 4, 6, 8, 12 and 24 hr by taking blood samples from the cannulated jugular vein (rats) or through a capillary, guided in retro-orbital plexus (mice).
# [3] = tested on: liver gene expression (ACACA, ACLY, FASN, LSS, PNPLA3); experiment: Liver gene expression in mice after oral administration; type: in vivo; settings: 30 mpk, vs vehicle
# Description: (§4) The pharmacodynamic properties of selected compounds were evaluated in mice. The animals were housed in cages with clean bedding, and maintained and monitored for good health in accordance with Test Facility SOPs and at the discretion of the laboratory animal veterinarian. Certified rodent diet was provided. Food and water was available ad libitum. Environmental controls for the animal room were set to maintain a temperature of 22° C. to 25° C., humidity of 40-70% RH, and a 12-hour light/[…]. Normal healthy animals certified by the attending veterinarian were selected and acclimatized for minimum three days prior to initiation of study. Animals were identified with body markings.
# (§5) Aliquots of the compounds being evaluated were weighed and triturated with 0.5% methylcellulose (with the addition of 5% N-methyl pyrrolidone when required to remove clumping, as for Z-806) to an appropriate dose concentration. Vials were labeled with the information about study number, test item, concentration and date of preparation. A description of appearance of formulation was recorded (e.g., color, turbidity, etc.). The composition of formulation vehicle was recorded. An aliquot of each dose solution was taken before the dosing began and after dosing was finished, and stored at approximately −20° C. or below for subsequent analysis. The animals were dosed orally through oral gavage needle, and time of dosing was recorded.
# (§6) Liver Collection at 6 h or 24 h: Immediately after blood withdrawal for pharmacokinetic evaluation (at 6 or at 24 h), liver tissue was collected without perfusion. Animals were euthanized using carbon dioxide gas in a CO2 chamber. The whole blood was drained by cutting the both side jugular vein and abdominal aorta. The liver was separated out. All the liver samples were divided in two parts. The first part (200 mg approx.) was snap frozen using liquid nitrogen as soon as possible. These samples were immediately transferred to −80° C. for storage. The remaining part was weighed and used for bioanalysis.
# RNA Processing and Gene Expression Analysis: Liver Tissue RNA was harvested with the RNEasy kit and 20-100 ng used to synthesize cDNA with random primers following the manufacturer's protocol. Quantitative PCR was performed on 1 pg to 100 ng cDNA for the following genes: ACACA, ACLY, FASN, LSS, PNPLA3. Gene expression levels were determined using ΔΔCT method comparing treated to vehicle treated samples as a baseline, and fold change calculated. The average value for all 5 genes above was averaged and termed to Total Fold Change The results from this evaluation are presented in Table 8.
# [4] = Plasma and liver compound levels in mice after oral administration; type: in vivo; settings: 30 mpk
# Description: as §4, §5
# After dosing, the mice were anesthetized using gaseous anesthesia. Blood samples were collected through a capillary, guided in retro-orbital plexus, at 6 h or at 24 h. Approximately 100 uL of blood was collected from each mouse, in pre-labeled tubes. The collected blood was stored on ice prior to centrifugation. Blood samples were then centrifuged within 1 hour of collection to separate plasma. Centrifugation was conducted at 2500×g for 15 minutes at 4° C. The plasma was separated and transferred to pre-labeled micro-centrifuge tubes and promptly frozen at −80±10° C. until bioanalysis.
# as §6
# [5] = In vivo pharmacokinetic properties in mice (IV and PO); design: species or system C57BL/6J mice; settings: mouse, in vivo
# Description: as §1, §2, §3
# […] The concentration of compound in the plasma of the animals was evaluated at 0.25, 0.5, 1, 2, 4, 6, 8, 12 and 24 hr by taking blood samples from the cannulated jugular vein (rats) or through a capillary, guided in retro-orbital plexus (mice).
SMILES,IC50 (SREBP) [nM],"Intravenous Delivery (IV) CL ([2]; IV, 2 mg/kg) [mL/min/kg]","Intravenous Delivery (IV) T1/2 ([2]; IV, 2 mg/kg) [h]","Intravenous Delivery (IV) Vd ([2]; IV, 2 mg/kg) [L/kg]",% F (Bioavailability of oral delivery) ([2]; PO 10 mg/kg vs IV 2 mg/kg) [%],"Oral Administration (PO) AUC0-last ([2]; PO, 10 mg/kg)","Oral Administration (PO) T1/2 ([2]; PO, 10 mg/kg) [h]","Oral Administration (PO) Tmax ([2]; PO, 10 mg/kg) [h]",Total Gene FC Time (6 h) [3],Total Gene FC Time (24 h) [3],Liver ng/mg (6 h) [4] [ng/mg],Plasma ng/mL (6 h) [4] [ng/mL],Liver ng/mg 24 h [4] [ng/mg],Plasma ng/mL (24 h) [4] [ng/mL],other results
"CC(C)OC(=O)Nc1ccc(-c2cncc(-c3ccnc(C4OCCO4)c3)c2)c(Cl)c1 [Compound 20, Isopropyl (4-(2′-(1,3-dioxolan-2-yl)-[3,4′-bipyridin]-5-yl)-3-chlorophenyl)carbamate]",≤ 500,–,–,–,–,–,–,–,–,–,–,–,–,–,–
"CC1(O)CCCN(C(=O)c2ccc(-c3cncc(-c4ccnc(C(C)(C)C)c4)c3)c(Cl)c2)C1 (stereo not shown) [Compound 22, (4-(2′-(tert-butyl)-[3,4′-bipyridin]-5-yl)-3-chlorophenyl)(3-hydroxy-3-methylpiperidin-1-yl)methanone]",≤ 500,–,–,–,–,–,–,–,–,–,–,–,–,–,–
CC(C)(C)c1cc(-c2cccc(-c3ccc(C(=O)N4CCC(O)CC4)cc3Cl)c2)ccn1 [Compound Z-744],–,13.1,1.91,2.16,8.6,1058,2.35,2,++ (0.51-0.7509 = ++),+ (>0.751 = +),>1000,100 to 1000,>1000,100 to 1000,LogD [1]: 4.12
"CC(C)(C)c1cc(-c2cncc(-c3ccc(NS(C)(=O)=O)cc3Cl)c2)ccn1 [Compound Z-803, N-(4-(2′-(tert-butyl)-[3,4′-bipyridin]-5-yl)-3-chlorophenyl)methanesulfonamide]",–,–,–,–,–,–,–,–,–,–,–,–,–,–,"LogD ([1]; 1-octanol/aqueous buffer, read-out: LogD): 3.84; AUC(0-t) ([2]; male, Sprague Dawley, rat, plasma, 10 mg/kg, heading: Oral Administration AUC0-last, PO, 10 mg/kg): 2580 ng·h/mL; AUC(0-t) ([2]; male, Sprague Dawley, rat, plasma, IV, 2 mg/kg, read-out: Intravenous Delivery (IV) AUC0-last): 6160 ng·h/mL; clearance ([2]; male, Sprague Dawley, rat, plasma, IV, 2 mg/kg, read-out: Intravenous Delivery (IV) CL): 5.2 mL/min/kg; half-life ([2]; male, Sprague Dawley, rat, plasma, IV, 2 mg/kg, read-out: Intravenous Delivery (IV) T1/2 (converted)): 4.86 h; Vd ([2]; male, Sprague Dawley, rat, plasma, IV, 2 mg/kg, read-out: Intravenous Delivery (IV) Vd): 2.18 L/kg; bioavailability ([2]; male, Sprague Dawley, rat, plasma, PO 10 mg/kg vs IV 2 mg/kg, read-out: % F (Bioavailability of oral delivery)): 8.3%; half-life ([2]; male, Sprague Dawley, rat, plasma, PO, 10 mg/kg, read-out: Oral Administration (PO) T1/2 (converted)): 4.37 h; Tmax ([2]; male, Sprague Dawley, rat, plasma, PO, 10 mg/kg, read-out: Oral Administration (PO) Tmax): 3.33 h"
CC(C)(C)c1cc(-c2cncc(-c3c(Cl)cc(C(=O)N4CCC(O)CC4)cc3Cl)c2)ccn1 [Z-826],–,10.7,3.19,2.97,35,5387,3.05,1,+ (>0.751 = +),++ (0.51-0.7509 = ++),>1000,>1000,>1000,100 to 1000,"% F (Bioavailability of oral delivery) [5]: 82%; Intravenous Delivery (IV) AUC0-last ([5]; iv, 2 mg/kg): 3930 ng·h/mL; Intravenous Delivery (IV) CL ([5]; iv, 2 mg/kg): 8.45 mL/min/kg; Intravenous Delivery (IV) T1/2 ([5]; iv, 2 mg/kg): 3.24 h; Intravenous Delivery (IV) Vd ([5]; iv, 2 mg/kg): 2.37 L/kg; Oral Administration (PO) AUC0-last ([5]; po, 10 mg/kg): 15000 ng·h/mL; Oral Administration (PO) T1/2 ([5]; po, 10 mg/kg): 6.2 h; Oral Administration (PO) Tmax ([5]; po, 10 mg/kg): 0.25 h"
